# Assay: Human HepG2 cell viability assay in 384 well format
# Assay type: toxicity, cell-based
# Set-up: dose 125 nL, time 70.5 hour; concentration not given beside the values
# Conditions: HepG2 cells, read-out: Inhibition
compound,measurement,value
COCCn1nc(C(=O)N(C)Cc2ccc3ccccc3c2)ccc1=O,cytotoxicity at 70.5 h,-0.954%
O=C(O)c1cc(-c2cccs2)nc2c(Br)cnn12,cytotoxicity at 70.5 h,3.58%
CCc1cccc(N2CCC(NC(=O)c3ccncc3)CC2)c1,cytotoxicity at 70.5 h,-4.49%
N#Cc1cccc(S(=O)(=O)NC(=O)COc2ccc3c(c2)CCC3)c1,cytotoxicity at 70.5 h,4.27%
COc1cccc(-c2noc(C3CCN(Cc4ccc(C)cc4)C3)n2)c1 (configuration not stated),cytotoxicity at 70.5 h,23.2%
COCc1cnc2n1CCN(C(=O)c1cc3ccccc3o1)C2C (configuration not stated),cytotoxicity at 70.5 h,18.8%
CCN(CC)C1CCN(C(=O)NCc2cccc(NC(C)=O)c2)C1 (configuration not stated),cytotoxicity at 70.5 h,-6.18%
NC(=O)[C@@H]1CN2CCN(C(=O)C3CC3)C[C@@H]2[C@H]1c1ccccc1,cytotoxicity at 70.5 h,-2.24%
CN1CCC(Oc2ccc(-n3ccnc3-c3ccncc3)cc2)CC1,cytotoxicity at 70.5 h,-13.2%
COCC(=O)N1CCCC1c1ccnc(Nc2cnccn2)n1 (configuration not stated),cytotoxicity at 70.5 h,-7.05%
CCNC(=O)N(C)CCCc1n[nH]c(N)c1C#N,cytotoxicity at 70.5 h,17.3%
CN1CCCN(C(=O)c2nc3c(s2)CCCN3CC2CC2)CC1,cytotoxicity at 70.5 h,-1.89%
Cc1cnc(N2CCOC3(CCCN(C)C3)C2)nc1 (configuration not stated),cytotoxicity at 70.5 h,-10.1%
CN1CCCC(CNC(=O)CN(C)S(=O)(=O)c2cccnc2)C1 (configuration not stated),cytotoxicity at 70.5 h,6.09%
Cc1nc(CN2CCO[C@H]3CN(C(=O)Cc4cccs4)C[C@H]32)cs1,cytotoxicity at 70.5 h,-3.66%
CCCNC(=O)c1ccc(NC(=O)c2cccc(OCC)c2)cc1,cytotoxicity at 70.5 h,-7.63%
Cc1nc(CN(C)c2cc(N3CCCC3CO)ncn2)cs1 (configuration not stated),cytotoxicity at 70.5 h,-3.26%
CC(C)n1nc2c(cc1=O)CN(Cc1nnc(C3CC3)o1)CC2,cytotoxicity at 70.5 h,-3.62%
CCN(CC(O)c1ccc(C)cc1)C(=O)NC(C)C (configuration not stated),cytotoxicity at 70.5 h,-1.93%
c1nc(CSc2nnc(C3CC3)s2)cs1,cytotoxicity at 70.5 h,1.83%
Oc1cccc(CNCCC2CCCO2)c1 (configuration not stated),cytotoxicity at 70.5 h,-12.5%
O=C(c1ccccc1)C1CCN(C(=O)CC2COCCN2)CC1 (configuration not stated),cytotoxicity at 70.5 h,1.52%
O=C(CC(F)(F)F)N1CCCC(c2nccn2Cc2ccncc2)C1 (configuration not stated),cytotoxicity at 70.5 h,-6.22%
O=C(CCNS(=O)(=O)c1ccccc1)N1CCOC(c2ccccc2)C1 (configuration not stated),cytotoxicity at 70.5 h,-18%
CC(=O)N1CCN(C(=O)NCCCN(C)S(C)(=O)=O)CC1,cytotoxicity at 70.5 h,-5.97%
O=C(NC1CCC1)[C@@H]1CC[C@@H]2[C@@H](CCN2CCc2ccccc2)O1,cytotoxicity at 70.5 h,-13.9%
Cc1cc(N)nc(C2(C)CCCN2C(=O)Cc2ccc(F)cc2)n1 (configuration not stated),cytotoxicity at 70.5 h,-8.7%
CCOC(C)C(=O)Nc1ccc2c(ccn2CC)c1 (configuration not stated),cytotoxicity at 70.5 h,1.36%
CCN(Cc1ccccc1)C(=O)CCN1CC(O)C1,cytotoxicity at 70.5 h,-16.3%
CC(C)c1noc(CCC(=O)NCC2CCS(=O)(=O)C2)n1 (configuration not stated),cytotoxicity at 70.5 h,1.64%
Cc1cc(=O)[nH]c(-n2nc(-c3ccccc3)cc2N)n1,cytotoxicity at 70.5 h,12.5%
Cc1cc(CN(C)Cc2cc3c(cc2OC(F)F)OCO3)on1,cytotoxicity at 70.5 h,-6.95%
CC[C@H](C)[C@H](N)C(=O)Nc1nc(-c2cnc(N(C)CCO)nc2)cs1,cytotoxicity at 70.5 h,-1.04%
CN1CCCCC12CCN(c1nncs1)C2 (configuration not stated),cytotoxicity at 70.5 h,-9.3%
CC(=O)N1CCCN(C(=O)NCCCc2cn[nH]c2C)CC1,cytotoxicity at 70.5 h,-2.68%
CC(C)c1nnc2n1CCN(C(C(N)=O)c1ccc(F)cc1)C2 (configuration not stated),cytotoxicity at 70.5 h,-21.3%
c1cnc(N2CCO[C@H]3[C@H](OCC4CCOCC4)CC[C@@H]32)nc1,cytotoxicity at 70.5 h,-10.9%
COCC1CCN(c2ccnc3ccsc23)C1 (configuration not stated),cytotoxicity at 70.5 h,-5.48%
O=C(COc1ccccc1NCc1ccc(F)cc1)N1CCOCC1,cytotoxicity at 70.5 h,-20.5%
CCn1nc(C)cc1C(=O)OCCNc1ncnc2ccccc12,cytotoxicity at 70.5 h,27.6%
CNc1cc(N2CCCC2CNCc2csc(C(C)C)n2)ncn1 (configuration not stated),cytotoxicity at 70.5 h,28.6%
CCS(=O)(=O)N1CCN(Cc2ccncc2)c2nc(C)ccc2C1,cytotoxicity at 70.5 h,-5.64%
COc1c(CNCc2ccc(N3CCCC3)nc2)c(C(C)C)nn1C,cytotoxicity at 70.5 h,-9.28%
CCOCCC(=O)N1CCCCC1CCn1cccn1 (configuration not stated),cytotoxicity at 70.5 h,-6.8%
CCCc1nnc(N2CCN(c3ccccc3F)CC2)o1,cytotoxicity at 70.5 h,13.5%
CC(C)c1nccn1C(C)C(=O)N1CCN(c2cnccn2)CC1 (configuration not stated),cytotoxicity at 70.5 h,-11.1%
CN(Cc1cc(Br)cn1C)C(=O)c1cscn1,cytotoxicity at 70.5 h,-0.963%
Cc1nn(C)c(C)c1C(=O)NN1CCOCC1,cytotoxicity at 70.5 h,-6.78%
COCC(C)(O)CNC(=O)COc1ccccc1OC (configuration not stated),cytotoxicity at 70.5 h,-3.09%
NC(=O)c1ccc(N2CCCCC2)c(NC(=O)c2ccc(F)cc2F)c1,cytotoxicity at 70.5 h,3.5%
Cc1ccc(CN2Cc3ccnn3CC(C(=O)NCC3CC3)C2)o1 (configuration not stated),cytotoxicity at 70.5 h,-13.3%
CCC(C)NC(=O)NCCC(=O)N1CCN(c2ccccn2)CC1 (configuration not stated),cytotoxicity at 70.5 h,-0.377%
COc1ccc(COCC(O)CNC(=O)c2cccc(OC)c2)cc1 (configuration not stated),cytotoxicity at 70.5 h,-0.933%
COc1ccc(N2CCN(C(=O)CCn3nccc3C)C(C)C2)cc1 (configuration not stated),cytotoxicity at 70.5 h,-3.13%
CCNC(=O)C1CCN(Cn2nc(-c3ccc(F)cc3)oc2=O)CC1,cytotoxicity at 70.5 h,-13.2%
Cc1cc(C(=O)N2CCN[C@H](C)C2)c2ccc(F)cc2n1,cytotoxicity at 70.5 h,15.7%
O=C1CC2(CCCC2)C(=O)N1CC(O)COCc1ccccc1F (configuration not stated),cytotoxicity at 70.5 h,12.5%
